Assay results: ChEMBL document CHEMBL1795255, “Discovery and optimization of potent and selective benzonaphthyridinone analogs as small molecule mTOR inhibitors with improved mouse microsome stability” (Bioorg Med Chem Lett, 2011)

Key:
[1] = Inhibition of mTORC1
[2] = target: Serine/threonine-protein kinase mTOR (Mus musculus, UniProt Q9JLN9); experiment: Inhibition of mTOR-dependent S6K phosphorylation at T389 residue in MEF cells; assay type: cell-based
[3] = Inhibition of PI3K-dependent Akt phosphorylation at T308 residue in human PC3 cells; assay type: cell-based; conditions: PC-3
[4] = (§1) Tmax in po dosed mouse; assay type: ADME, organism-based; conditions: in vivo
[5] = Metabolic stability in mouse microsomes in presence of NADPH; assay type: ADME, Microsome; conditions: read-out: Stability
[6] = AUC (0 to infinity) in po dosed mouse; assay type: ADME, organism-based; parameters: route oral, time infinity; conditions: plasma
[7] = Oral bioavailability in mouse; assay type: ADME, organism-based; conditions: in vivo
[8] = (§2) Cmax in po dosed mouse; assay type: ADME, organism-based; parameters: route oral; conditions: in vivo
[9] = Half life in iv dosed mouse; assay type: ADME, organism-based; conditions: in vivo
[10] = (§3) Volume of distribution at steady state in iv dosed mouse; assay type: ADME, organism-based; conditions: in vivo, read-out: Vdss
[11] = AUC (0 to infinity) in iv dosed mouse; assay type: ADME, organism-based; parameters: time infinity, route intravenous; conditions: plasma
[12] = Clearance in iv dosed mouse; assay type: ADME, organism-based; conditions: in vivo
CYP3A4 = CYP3A4 (Homo sapiens, UniProt P08684); experiment: Inhibition of CYP3A4 at 10 uM; assay type: ADME
[13] = (§4) Cmax in iv dosed mouse; assay type: ADME, organism-based; parameters: route intravenous; conditions: in vivo
Mus musculus [14] = experiment: as §1; assay type: ADME, organism-based; conditions: in vivo
Mus musculus [15] = experiment: as §2; assay type: ADME, organism-based; parameters: route oral; conditions: in vivo
Mus musculus [16] = experiment: as §3; assay type: ADME, organism-based; conditions: in vivo
Mus musculus [17] = experiment: as §4; assay type: ADME, organism-based; parameters: route intravenous; conditions: in vivo
[18] = target: T1, Serine/threonine-protein kinase mTOR (Homo sapiens, UniProt P42345); experiment: Inhibition of mTOR-dependent AKT phosphorylation at S473 residue in liver at 20 mg/kg after 6 hrs by in vivo pharmacodynamic study; assay type: organism-based; parameters: dose 20 mg/kg
[19] = target: T1, Serine/threonine-protein kinase mTOR; experiment: Inhibition of mTOR-dependent S6K phosphorylation at T389 residue in liver at 20 mg/kg after 6 hrs by in vivo pharmacodynamic study; assay type: organism-based; parameters: dose 20 mg/kg
[20] = target: T1, Serine/threonine-protein kinase mTOR; experiment: Inhibition of mTOR-dependent AKT phosphorylation at S473 residue in lung at 20 mg/kg after 6 hrs by in vivo pharmacodynamic study; assay type: organism-based; parameters: dose 20 mg/kg
[21] = target: Phosphatidylinositol 4-phosphate 3-kinase C2 domain-containing subunit alpha (Homo sapiens, UniProt O00443); experiment: Inhibition of PI3K C2alpha
[22] = target: Phosphatidylinositol 4-kinase alpha (Homo sapiens, UniProt P42356); experiment: Inhibition of PI4K alpha
[23] = target: T1, Serine/threonine-protein kinase mTOR; experiment: Inhibition of mTOR
[24] = target: Phosphatidylinositol 3-kinase catalytic subunit type 3 (Homo sapiens, UniProt Q8NEB9); experiment: Inhibition of human VPS34
[25] = target: PI3-kinase p110-alpha/p85-alpha (Homo sapiens, UniProt P42336); experiment: Inhibition of P110alpha/p85alpha; assay type: protein-complex assay
[26] = target: T1, Serine/threonine-protein kinase mTOR; experiment: Inhibition of mTOR-dependent S6K phosphorylation at T389 residue in lung at 20 mg/kg after 6 hrs by in vivo pharmacodynamic study; assay type: organism-based; parameters: dose 20 mg/kg
[27] = target: Phosphatidylinositol 4-phosphate 3-kinase C2 domain-containing subunit beta (Homo sapiens, UniProt O00750); experiment: Inhibition of PI3K C2beta
[28] = target: Phosphatidylinositol 4-kinase beta (Homo sapiens, UniProt Q9UBF8); experiment: Inhibition of PI4K beta
Chain of Phosphatidylinositol 4-kinase beta (Q9UBF8 whole entry): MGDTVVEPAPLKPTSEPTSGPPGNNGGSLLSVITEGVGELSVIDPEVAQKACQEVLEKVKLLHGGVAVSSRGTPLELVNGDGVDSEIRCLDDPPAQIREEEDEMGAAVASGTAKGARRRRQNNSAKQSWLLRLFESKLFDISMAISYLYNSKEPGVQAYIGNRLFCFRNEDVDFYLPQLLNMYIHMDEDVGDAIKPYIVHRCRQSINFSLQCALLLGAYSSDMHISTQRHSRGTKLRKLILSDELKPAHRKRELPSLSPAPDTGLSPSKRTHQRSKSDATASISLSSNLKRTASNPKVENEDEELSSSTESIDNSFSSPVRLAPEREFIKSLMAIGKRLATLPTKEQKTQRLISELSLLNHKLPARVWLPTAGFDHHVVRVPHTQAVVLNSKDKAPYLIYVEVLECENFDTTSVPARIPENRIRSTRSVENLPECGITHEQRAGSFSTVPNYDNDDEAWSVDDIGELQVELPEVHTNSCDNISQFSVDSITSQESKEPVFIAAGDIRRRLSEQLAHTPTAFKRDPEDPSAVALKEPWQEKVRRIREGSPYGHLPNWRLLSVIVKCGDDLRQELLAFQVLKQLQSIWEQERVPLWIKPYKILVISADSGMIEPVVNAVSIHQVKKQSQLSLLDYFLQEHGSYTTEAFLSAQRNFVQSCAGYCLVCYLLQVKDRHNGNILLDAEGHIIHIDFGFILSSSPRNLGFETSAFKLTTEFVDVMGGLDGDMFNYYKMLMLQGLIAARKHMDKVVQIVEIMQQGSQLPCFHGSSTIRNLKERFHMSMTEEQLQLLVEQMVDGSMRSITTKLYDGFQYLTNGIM

Chain of CYP3A4 (P08684 whole entry): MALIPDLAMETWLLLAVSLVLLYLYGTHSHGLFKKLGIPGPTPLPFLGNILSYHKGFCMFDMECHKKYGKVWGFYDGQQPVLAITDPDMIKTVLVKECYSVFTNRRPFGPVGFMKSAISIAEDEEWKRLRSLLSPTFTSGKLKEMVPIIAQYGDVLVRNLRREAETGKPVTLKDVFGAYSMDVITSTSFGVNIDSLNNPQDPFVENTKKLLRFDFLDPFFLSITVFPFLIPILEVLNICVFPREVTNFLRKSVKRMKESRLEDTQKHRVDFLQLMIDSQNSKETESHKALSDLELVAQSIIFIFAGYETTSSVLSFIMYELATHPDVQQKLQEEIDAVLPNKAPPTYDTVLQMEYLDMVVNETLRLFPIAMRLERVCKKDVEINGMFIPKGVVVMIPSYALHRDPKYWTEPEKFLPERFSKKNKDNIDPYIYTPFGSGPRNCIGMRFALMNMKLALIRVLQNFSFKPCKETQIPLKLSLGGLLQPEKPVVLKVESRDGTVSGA
Chain of PI3-kinase p110-alpha/p85-alpha (P27986 whole entry): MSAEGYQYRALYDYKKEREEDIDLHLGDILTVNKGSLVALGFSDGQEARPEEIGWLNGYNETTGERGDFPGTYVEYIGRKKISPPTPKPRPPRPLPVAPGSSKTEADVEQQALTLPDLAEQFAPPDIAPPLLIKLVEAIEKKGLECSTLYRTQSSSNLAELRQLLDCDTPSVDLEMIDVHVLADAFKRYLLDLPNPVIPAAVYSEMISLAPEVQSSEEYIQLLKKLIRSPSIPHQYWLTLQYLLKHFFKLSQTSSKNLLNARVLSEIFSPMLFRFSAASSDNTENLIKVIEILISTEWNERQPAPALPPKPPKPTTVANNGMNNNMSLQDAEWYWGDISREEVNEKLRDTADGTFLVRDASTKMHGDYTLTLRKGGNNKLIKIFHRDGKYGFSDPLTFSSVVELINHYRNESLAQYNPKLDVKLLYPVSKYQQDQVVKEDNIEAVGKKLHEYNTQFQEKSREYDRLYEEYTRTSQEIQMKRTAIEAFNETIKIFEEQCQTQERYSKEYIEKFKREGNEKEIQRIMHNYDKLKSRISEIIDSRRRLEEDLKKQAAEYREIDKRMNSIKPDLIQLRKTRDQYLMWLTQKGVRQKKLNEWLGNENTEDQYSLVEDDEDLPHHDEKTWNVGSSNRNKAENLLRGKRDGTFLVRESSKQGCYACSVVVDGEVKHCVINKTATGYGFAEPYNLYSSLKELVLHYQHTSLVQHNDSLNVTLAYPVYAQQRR
Chain of PI3-kinase p110-alpha/p85-alpha (P42336 whole entry): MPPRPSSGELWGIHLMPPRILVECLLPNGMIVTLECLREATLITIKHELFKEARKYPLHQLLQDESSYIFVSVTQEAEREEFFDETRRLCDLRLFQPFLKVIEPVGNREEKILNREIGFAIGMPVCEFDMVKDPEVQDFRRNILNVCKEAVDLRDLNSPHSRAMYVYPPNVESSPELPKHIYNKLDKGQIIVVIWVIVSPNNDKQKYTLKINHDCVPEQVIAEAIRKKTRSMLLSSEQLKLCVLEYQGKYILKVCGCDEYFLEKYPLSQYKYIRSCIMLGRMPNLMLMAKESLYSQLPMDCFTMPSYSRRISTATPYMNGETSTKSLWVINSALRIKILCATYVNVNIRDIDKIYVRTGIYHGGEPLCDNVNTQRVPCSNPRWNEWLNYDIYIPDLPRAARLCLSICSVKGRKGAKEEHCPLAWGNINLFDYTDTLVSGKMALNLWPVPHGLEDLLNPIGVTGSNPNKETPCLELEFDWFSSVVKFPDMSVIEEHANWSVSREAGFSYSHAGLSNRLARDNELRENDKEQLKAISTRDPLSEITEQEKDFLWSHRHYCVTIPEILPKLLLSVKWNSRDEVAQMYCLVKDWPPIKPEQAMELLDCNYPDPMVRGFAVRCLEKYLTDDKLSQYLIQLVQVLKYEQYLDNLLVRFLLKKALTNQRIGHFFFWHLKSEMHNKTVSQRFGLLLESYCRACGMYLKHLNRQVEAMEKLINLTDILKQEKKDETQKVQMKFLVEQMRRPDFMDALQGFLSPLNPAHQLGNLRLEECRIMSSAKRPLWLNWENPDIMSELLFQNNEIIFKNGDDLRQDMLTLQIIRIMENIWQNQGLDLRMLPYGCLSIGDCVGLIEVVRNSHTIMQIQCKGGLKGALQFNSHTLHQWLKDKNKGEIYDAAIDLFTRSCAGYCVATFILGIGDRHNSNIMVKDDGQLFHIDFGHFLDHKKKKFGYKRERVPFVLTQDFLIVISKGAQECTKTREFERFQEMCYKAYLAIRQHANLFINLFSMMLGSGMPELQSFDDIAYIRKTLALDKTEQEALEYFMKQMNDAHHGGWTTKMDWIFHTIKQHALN
Chain of Phosphatidylinositol 4-phosphate 3-kinase C2 domain-containing subunit beta (O00750 whole entry, the tested form may be a part): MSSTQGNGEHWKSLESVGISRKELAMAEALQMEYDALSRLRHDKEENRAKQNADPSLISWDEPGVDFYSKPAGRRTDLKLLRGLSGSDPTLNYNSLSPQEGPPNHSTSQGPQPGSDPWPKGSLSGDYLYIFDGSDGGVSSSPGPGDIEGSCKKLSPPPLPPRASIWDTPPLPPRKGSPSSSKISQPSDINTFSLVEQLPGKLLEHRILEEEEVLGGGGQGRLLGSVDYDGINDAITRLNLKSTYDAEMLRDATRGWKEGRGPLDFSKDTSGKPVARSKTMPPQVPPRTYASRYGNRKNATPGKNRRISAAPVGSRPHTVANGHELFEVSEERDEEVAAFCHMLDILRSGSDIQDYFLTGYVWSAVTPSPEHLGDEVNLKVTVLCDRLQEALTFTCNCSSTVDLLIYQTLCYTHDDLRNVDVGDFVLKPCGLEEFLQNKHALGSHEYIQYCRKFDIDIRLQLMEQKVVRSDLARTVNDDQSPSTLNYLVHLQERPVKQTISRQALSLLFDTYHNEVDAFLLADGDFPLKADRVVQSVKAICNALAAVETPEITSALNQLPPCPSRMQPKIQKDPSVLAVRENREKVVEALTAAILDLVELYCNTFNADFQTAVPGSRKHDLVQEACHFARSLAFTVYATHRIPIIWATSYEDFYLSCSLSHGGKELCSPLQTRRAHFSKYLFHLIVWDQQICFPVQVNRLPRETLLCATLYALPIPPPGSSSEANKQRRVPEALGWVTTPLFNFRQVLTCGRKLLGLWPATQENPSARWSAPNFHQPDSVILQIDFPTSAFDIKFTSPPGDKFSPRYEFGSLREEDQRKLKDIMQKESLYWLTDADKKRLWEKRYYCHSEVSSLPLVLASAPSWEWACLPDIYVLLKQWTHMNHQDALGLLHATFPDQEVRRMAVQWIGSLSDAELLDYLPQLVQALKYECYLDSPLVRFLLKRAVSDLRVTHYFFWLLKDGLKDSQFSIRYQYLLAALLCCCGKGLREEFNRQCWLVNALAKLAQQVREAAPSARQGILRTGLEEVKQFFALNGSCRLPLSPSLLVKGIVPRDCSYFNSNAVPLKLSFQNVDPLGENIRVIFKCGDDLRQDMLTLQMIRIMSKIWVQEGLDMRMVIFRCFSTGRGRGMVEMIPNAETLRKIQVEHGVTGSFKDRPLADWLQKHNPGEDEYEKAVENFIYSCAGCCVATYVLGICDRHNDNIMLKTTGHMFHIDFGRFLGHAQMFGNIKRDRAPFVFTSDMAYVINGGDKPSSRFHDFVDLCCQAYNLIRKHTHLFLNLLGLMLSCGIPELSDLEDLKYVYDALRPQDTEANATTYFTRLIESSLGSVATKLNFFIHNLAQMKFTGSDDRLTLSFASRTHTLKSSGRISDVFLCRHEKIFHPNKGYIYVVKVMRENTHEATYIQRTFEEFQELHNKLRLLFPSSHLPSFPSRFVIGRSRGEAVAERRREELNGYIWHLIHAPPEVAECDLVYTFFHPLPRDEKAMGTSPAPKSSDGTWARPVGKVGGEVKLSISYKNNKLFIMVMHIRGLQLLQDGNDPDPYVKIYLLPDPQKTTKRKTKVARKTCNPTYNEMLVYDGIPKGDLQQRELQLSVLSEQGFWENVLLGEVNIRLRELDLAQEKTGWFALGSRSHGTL

SMILES: Cc1cc(-n2c(=O)ccc3cnc4ccc(-c5ccc(N)nc5)cc4c32)ccc1-c1ccc(C(=O)NC2CCN(C)CC2)cc1
- IC50 [1]: 39.8 nM
- EC50 [2]: 50 nM
- EC50 [3]: > 1250 nM

SMILES: Cc1cc(-n2c(=O)ccc3cnc4ccc(-c5cnc6ccccc6c5)cc4c32)ccc1-c1ccc(C(=O)NC2CCN(C)CC2)cc1
- Tmax [4]: 1 h
- half-life [5]: 0.7 h
- AUC(0-inf) [6]: 391 ng·h/mL
- bioavailability [7]: 5.4%
- Cmax [8]: 115 ng/mL
- IC50 [1]: 14.5 nM
- half-life [9]: 1.85 h
- Vd [10]: 1.82 L/kg
- EC50 [2]: 1 nM
- EC50 [3]: 1000 nM
- AUC(0-inf) [11]: 737 ng·h/mL
- clearance [12]: 22.6 mL/min/kg
- inhibition at 10 µM (CYP3A4): 34%
- Cmax [13]: 1050 ng/mL

SMILES: O=C(O)c1ccc(-c2ccc(-n3c(=O)ccc4cnc5ccc(-c6cnc7ccccc7c6)cc5c43)cc2C(F)(F)F)cc1
- IC50 [1]: 22.9 nM
- EC50 [2]: 20 nM
- EC50 [3]: > 300 nM

SMILES: CCC(=O)N1CCN(c2ccc(-n3c(=O)ccc4cnc5ccc(-c6cnc7ccccc7c6)cc5c43)cc2C(F)(F)F)CC1 [TORIN1]
- Tmax (Mus musculus [14]): 0.25 h
- AUC(0-inf) [6]: 396 ng·h/mL
- Cmax (Mus musculus [15]): 223 ng/mL
- Vdss (Mus musculus [16]): 0.59 L/kg
- AUC(0-inf) [11]: 720 ng·h/mL
- Cmax (Mus musculus [17]): 2757 ng/mL

SMILES: CN1CCC(NC(=O)c2ccc(-c3ccc(-n4c(=O)ccc5cnc6ccc(-c7cn[nH]c7)cc6c54)cc3C(F)(F)F)cc2)CC1
- IC50 [1]: 14.1 nM
- EC50 [2]: 10 nM
- EC50 [3]: 1000 nM

SMILES: Cc1cc(-n2c(=O)ccc3cnc4ccc(-c5cnn(C)c5)cc4c32)ccc1-c1ccc(C(=O)NC2CCN(C)CC2)cc1
- IC50 [1]: 283 nM
- EC50 [2]: 150 nM
- EC50 [3]: > 1250 nM

SMILES: Cc1cc(-n2c(=O)ccc3cnc4ccc(-c5cnc6[nH]ccc6c5)cc4c32)ccc1-c1ccc(C(=O)NC2CCN(C)CC2)cc1
- IC50 [1]: 18.9 nM
- EC50 [2]: 25 nM
- EC50 [3]: 1000 nM

SMILES: COC(=O)c1ccc(-c2ccc(-n3c(=O)ccc4cnc5ccc(-c6cnc7ccccc7c6)cc5c43)cc2C(F)(F)F)cc1
- IC50 [1]: 299 nM
- EC50 [2]: 200 nM
- EC50 [3]: > 300 nM

SMILES: NC(=O)c1ccc(-c2ccc(-n3c(=O)ccc4cnc5ccc(-c6cnc7ccccc7c6)cc5c43)cc2C(F)(F)F)cc1
- IC50 [1]: 56.3 nM
- EC50 [2]: 25 nM
- EC50 [3]: > 300 nM

SMILES: CN1CCC(NC(=O)c2ccc(-c3ccc(-n4c(=O)ccc5cnc6ccc(-c7cnc(N)nc7)cc6c54)cc3C(F)(F)F)cc2)CC1
- IC50 [1]: 43.2 nM
- EC50 [2]: 10 nM
- EC50 [3]: 1000 nM

SMILES: CN1CCC(NC(=O)c2ccc(-c3ccc(-n4c(=O)ccc5cnc6ccc(-c7cnc8ccccc8c7)cc6c54)cc3C(F)(F)F)cc2)CC1
- inhibition [18]: 80%
- Tmax [4]: 4 h
- inhibition [19]: 80%
- inhibition [20]: 80%
- IC50 [21]: 1110 nM
- half-life [5]: 0.767 h
- AUC(0-inf) [6]: 1410 ng·h/mL
- bioavailability [7]: 10.1%
- Cmax [8]: 191 ng/mL
- IC50 [1]: 21.7 nM
- IC50 [22]: > 10000 nM
- half-life [9]: 3.61 h
- Vd [10]: 1.95 L/kg
- EC50 [2]: 5 nM
- IC50 [23]: 3.01 nM
- IC50 [24]: 170 nM
- AUC(0-inf) [11]: 1390 ng·h/mL
- IC50 [25]: 922 nM
- inhibition [26]: 80%
- IC50 [27]: 437 nM
- clearance [12]: 11.9 mL/min/kg
- inhibition at 10 µM (CYP3A4): 61%
- IC50 [28]: 3440 nM
- Cmax [13]: 1410 ng/mL

SMILES: CNC(=O)c1ccc(-c2ccc(-n3c(=O)ccc4cnc5ccc(-c6cnc7ccccc7c6)cc5c43)cc2C(F)(F)F)cc1
- IC50 [1]: 10.2 nM
- EC50 [2]: 15 nM
- EC50 [3]: > 300 nM

SMILES: Cc1cc(-n2c(=O)ccc3cnc4ccc(-c5cn[nH]c5)cc4c32)ccc1-c1ccc(C(=O)NC2CCN(C)CC2)cc1
- IC50 [1]: 38.1 nM
- EC50 [2]: 150 nM
- EC50 [3]: > 1250 nM

SMILES: O=c1ccc2cnc3ccc(-c4cnc5ccccc5c4)cc3c2n1-c1ccc(-c2ccc(CO)cc2)c(C(F)(F)F)c1
- IC50 [1]: 17.3 nM
- EC50 [2]: 30 nM
- EC50 [3]: > 300 nM

SMILES: O=c1ccc2cnc3ccc(-c4cnc5ccccc5c4)cc3c2n1-c1ccc(-c2ccc(COC3CCCCO3)cc2)c(C(F)(F)F)c1 (stereo not drawn)
- IC50 [1]: 188 nM
- EC50 [2]: 25 nM
- EC50 [3]: > 300 nM

SMILES: Cc1cc(-n2c(=O)ccc3cnc4ccccc4c32)ccc1-c1ccc(C(=O)NC2CCN(C)CC2)cc1
- IC50 [1]: > 3000 nM
- EC50 [2]: > 1000 nM
- EC50 [3]: > 1250 nM
